Experimental data: PubChem BioAssay (NCI)
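Each compound was tested at five concentrations against cells in 96-well plates for 48 hours. TGI: total growth inhibition.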

How the values were obtained:
Assay in all cases: NCI-60 cell line screen, 48 h
KM12 colon = system: KM12 colon
SK-OV-3 ovarian = system: SK-OV-3 ovarian
HS 578T breast = system: HS 578T breast
HL-60(TB) leukemia = system: HL-60(TB) leukemia
A549 NSCLC = system: A549 NSCLC
HOP-62 NSCLC = system: HOP-62 NSCLC
HCT-116 colon = system: HCT-116 colon
RXF 393 renal = system: RXF 393 renal
MOLT-4 leukemia = system: MOLT-4 leukemia
SN12C renal = system: SN12C renal
A498 renal = system: A498 renal
HT29 colon = system: HT29 colon
MALME-3M melanoma = system: MALME-3M melanoma
COLO 205 colon = system: COLO 205 colon
MCF7 breast = system: MCF7 breast
MDA-MB-435 = system: MDA-MB-435
DU-145 prostate = system: DU-145 prostate
TK-10 renal = system: TK-10 renal
LOX IMVI melanoma = system: LOX IMVI melanoma
OVCAR-8 ovarian = system: OVCAR-8 ovarian
SK-MEL-28 melanoma = system: SK-MEL-28 melanoma
UO-31 renal = system: UO-31 renal
RPMI-8226 leukemia = system: RPMI-8226 leukemia
NCI-H226 lung = system: NCI-H226 lung
HOP-92 NSCLC = system: HOP-92 NSCLC
EKVX NSCLC = system: EKVX NSCLC
SF-268 CNS = system: SF-268 CNS
BT-549 breast = system: BT-549 breast
OVCAR-5 ovarian = system: OVCAR-5 ovarian
UACC-62 melanoma = system: UACC-62 melanoma
PC-3 prostate = system: PC-3 prostate
HCT-15 colon = system: HCT-15 colon
HCC-2998 colon = system: HCC-2998 colon
T-47D breast = system: T-47D breast
SF-539 CNS = system: SF-539 CNS
ACHN renal = system: ACHN renal
SNB-19 CNS = system: SNB-19 CNS
SK-MEL-5 melanoma = system: SK-MEL-5 melanoma
786-0 renal = system: 786-0 renal
MDA-N = system: MDA-N
CAKI-1 renal = system: CAKI-1 renal
NCI-H522 lung = system: NCI-H522 lung
OVCAR-3 ovarian = system: OVCAR-3 ovarian
SW-620 colon = system: SW-620 colon
U251 CNS = system: U251 CNS
M14 melanoma = system: M14 melanoma
K-562 leukemia = system: K-562 leukemia
NCI-H460 lung = system: NCI-H460 lung
SK-MEL-2 melanoma = system: SK-MEL-2 melanoma
SR leukemia = system: SR leukemia
UACC-257 melanoma = system: UACC-257 melanoma
IGROV1 ovarian = system: IGROV1 ovarian
CCRF-CEM leukemia = system: CCRF-CEM leukemia
SNB-75 CNS = system: SNB-75 CNS
NCI-H23 lung = system: NCI-H23 lung
OVCAR-4 ovarian = system: OVCAR-4 ovarian
MDA-MB-231 breast = system: MDA-MB-231 breast
NCI/ADR-RES ovarian = system: NCI/ADR-RES ovarian
SF-295 CNS = system: SF-295 CNS

For `C=C(C)C(CC=C(C)C)Cc1c(O)cc(OC)c2c1OC(c1ccc(O)cc1O)C(O)C2=O` (configuration not stated), which TGI (KM12 colon) is on record?
Its TGI is 24.6 µM.

What about the TGI (SK-OV-3 ovarian) of the same compound?
Its TGI is 30.5 µM.

And the TGI (HS 578T breast)?
The TGI was 79.4 µM.

What about the TGI (HL-60(TB) leukemia) of the same compound?
Its TGI is > 100 µM.

What about the TGI (A549 NSCLC) of the same compound?
Its TGI is 39.4 µM.

And the TGI (HOP-62 NSCLC)?
Its TGI is 31 µM.

What about the TGI (HCT-116 colon) of the same compound?
Its TGI is 34.5 µM.

What about the TGI (RXF 393 renal) of the same compound?
Its TGI is 43.6 µM.

And the TGI (MOLT-4 leukemia)?
Its TGI is > 100 µM.

What about the TGI (SN12C renal) of the same compound?
The TGI was 35.2 µM.

And the TGI (A498 renal)?
Its TGI is 30.7 µM.

And the TGI (HT29 colon)?
The TGI was 38.2 µM.

And the TGI (MALME-3M melanoma)?
Its TGI is 31.8 µM.

What about the TGI (COLO 205 colon) of the same compound?
Its TGI is 30 µM.

What about the TGI (MCF7 breast) of the same compound?
Its TGI is 27 µM.

And the TGI (MDA-MB-435)?
Its TGI is 35.9 µM.

What about the TGI (DU-145 prostate) of the same compound?
Its TGI is 32.4 µM.

And the TGI (TK-10 renal)?
The TGI was 38.4 µM.

What about the TGI (LOX IMVI melanoma) of the same compound?
The TGI was 36.1 µM.

What about the TGI (OVCAR-8 ovarian) of the same compound?
The TGI was 31.2 µM.

And the TGI (SK-MEL-28 melanoma)?
The TGI was 56.2 µM.

And the TGI (UO-31 renal)?
The TGI was 29.5 µM.

What about the TGI (RPMI-8226 leukemia) of the same compound?
The TGI was > 100 µM.

What about the TGI (NCI-H226 lung) of the same compound?
Its TGI is 44.7 µM.

What about the TGI (HOP-92 NSCLC) of the same compound?
The TGI was 28 µM.

And the TGI (EKVX NSCLC)?
The TGI was 31.1 µM.

What about the TGI (SF-268 CNS) of the same compound?
The TGI was 61.1 µM.

And the TGI (BT-549 breast)?
The TGI was 28.5 µM.

And the TGI (OVCAR-5 ovarian)?
Its TGI is 32.4 µM.

What about the TGI (UACC-62 melanoma) of the same compound?
Its TGI is 36.4 µM.

And the TGI (PC-3 prostate)?
The TGI was 26.3 µM.

And the TGI (HCT-15 colon)?
The TGI was 31.1 µM.

And the TGI (HCC-2998 colon)?
The TGI was 30.6 µM.

What about the TGI (T-47D breast) of the same compound?
Its TGI is 32.4 µM.

And the TGI (SF-539 CNS)?
Its TGI is 31.4 µM.

And the TGI (ACHN renal)?
The TGI was 43.2 µM.

And the TGI (SNB-19 CNS)?
Its TGI is 29.3 µM.

What about the TGI (SK-MEL-5 melanoma) of the same compound?
The TGI was 33.1 µM.

And the TGI (786-0 renal)?
The TGI was 32.3 µM.

And the TGI (MDA-N)?
The TGI was 28.1 µM.

What about the TGI (CAKI-1 renal) of the same compound?
Its TGI is 26.6 µM.

What about the TGI (NCI-H522 lung) of the same compound?
Its TGI is 34.2 µM.

What about the TGI (OVCAR-3 ovarian) of the same compound?
Its TGI is 34.8 µM.

And the TGI (SW-620 colon)?
Its TGI is 30.3 µM.

What about the TGI (U251 CNS) of the same compound?
The TGI was 27.6 µM.

And the TGI (M14 melanoma)?
The TGI was 36.5 µM.

What about the TGI (K-562 leukemia) of the same compound?
Its TGI is > 100 µM.

And the TGI (NCI-H460 lung)?
The TGI was 33.9 µM.

What about the TGI (SK-MEL-2 melanoma) of the same compound?
Its TGI is 34.7 µM.

What about the TGI (SR leukemia) of the same compound?
The TGI was > 100 µM.

What about the TGI (UACC-257 melanoma) of the same compound?
The TGI was 32.1 µM.

What about the TGI (IGROV1 ovarian) of the same compound?
Its TGI is 28.1 µM.

What about the TGI (CCRF-CEM leukemia) of the same compound?
Its TGI is > 100 µM.

And the TGI (SNB-75 CNS)?
The TGI was 31.5 µM.

And the TGI (NCI-H23 lung)?
Its TGI is 33.6 µM.

And the TGI (OVCAR-4 ovarian)?
Its TGI is 38.4 µM.

And the TGI (MDA-MB-231 breast)?
The TGI was 34.1 µM.

And the TGI (NCI/ADR-RES ovarian)?
Its TGI is 55.8 µM.

And the TGI (SF-295 CNS)?
The TGI was 28.2 µM.

How did the TGI (KM12 colon) turn out when `COC1=C(OC)C23CCc4ccc(OC)c(O)c4C2(CCN3)CC1=O` (configuration not stated) was run?
Its TGI is > 100 µM.

What about the TGI (SK-OV-3 ovarian) of the same compound?
The TGI was > 100 µM.

What about the TGI (HS 578T breast) of the same compound?
Its TGI is > 100 µM.

What about the TGI (HL-60(TB) leukemia) of the same compound?
Its TGI is > 100 µM.

And the TGI (A549 NSCLC)?
Its TGI is > 100 µM.

What about the TGI (HOP-62 NSCLC) of the same compound?
Its TGI is > 100 µM.

And the TGI (HCT-116 colon)?
The TGI was > 100 µM.

And the TGI (RXF 393 renal)?
The TGI was > 100 µM.

What about the TGI (MOLT-4 leukemia) of the same compound?
Its TGI is > 100 µM.

What about the TGI (SN12C renal) of the same compound?
The TGI was > 100 µM.

And the TGI (A498 renal)?
Its TGI is > 100 µM.

What about the TGI (HT29 colon) of the same compound?
Its TGI is > 100 µM.

What about the TGI (MALME-3M melanoma) of the same compound?
Its TGI is > 100 µM.

What about the TGI (COLO 205 colon) of the same compound?
Its TGI is > 100 µM.

What about the TGI (MCF7 breast) of the same compound?
The TGI was > 100 µM.

What about the TGI (MDA-MB-435) of the same compound?
The TGI was > 100 µM.

And the TGI (DU-145 prostate)?
Its TGI is > 100 µM.

And the TGI (TK-10 renal)?
The TGI was > 100 µM.

And the TGI (LOX IMVI melanoma)?
The TGI was > 100 µM.

What about the TGI (OVCAR-8 ovarian) of the same compound?
The TGI was > 100 µM.

What about the TGI (SK-MEL-28 melanoma) of the same compound?
Its TGI is > 100 µM.

And the TGI (RPMI-8226 leukemia)?
The TGI was > 100 µM.

And the TGI (NCI-H226 lung)?
The TGI was > 100 µM.

And the TGI (HOP-92 NSCLC)?
The TGI was > 100 µM.

And the TGI (EKVX NSCLC)?
Its TGI is > 100 µM.

And the TGI (SF-268 CNS)?
Its TGI is > 100 µM.

What about the TGI (BT-549 breast) of the same compound?
The TGI was > 100 µM.

And the TGI (OVCAR-5 ovarian)?
Its TGI is > 100 µM.

And the TGI (UACC-62 melanoma)?
Its TGI is > 100 µM.

And the TGI (PC-3 prostate)?
The TGI was > 100 µM.

What about the TGI (HCT-15 colon) of the same compound?
Its TGI is > 100 µM.

What about the TGI (HCC-2998 colon) of the same compound?
Its TGI is > 100 µM.

And the TGI (T-47D breast)?
Its TGI is > 100 µM.

What about the TGI (SF-539 CNS) of the same compound?
Its TGI is > 100 µM.

What about the TGI (ACHN renal) of the same compound?
The TGI was > 100 µM.

What about the TGI (SNB-19 CNS) of the same compound?
The TGI was > 100 µM.

And the TGI (SK-MEL-5 melanoma)?
The TGI was > 100 µM.

What about the TGI (786-0 renal) of the same compound?
Its TGI is > 100 µM.

And the TGI (MDA-N)?
The TGI was > 100 µM.

What about the TGI (CAKI-1 renal) of the same compound?
The TGI was > 100 µM.

What about the TGI (NCI-H522 lung) of the same compound?
The TGI was > 100 µM.

What about the TGI (OVCAR-3 ovarian) of the same compound?
Its TGI is > 100 µM.

And the TGI (SW-620 colon)?
Its TGI is > 100 µM.

What about the TGI (U251 CNS) of the same compound?
The TGI was > 100 µM.

And the TGI (M14 melanoma)?
Its TGI is > 100 µM.

What about the TGI (K-562 leukemia) of the same compound?
The TGI was > 100 µM.

What about the TGI (NCI-H460 lung) of the same compound?
The TGI was > 100 µM.

And the TGI (SK-MEL-2 melanoma)?
Its TGI is > 100 µM.

And the TGI (SR leukemia)?
The TGI was > 100 µM.

What about the TGI (UACC-257 melanoma) of the same compound?
Its TGI is > 100 µM.

What about the TGI (IGROV1 ovarian) of the same compound?
The TGI was > 100 µM.

What about the TGI (CCRF-CEM leukemia) of the same compound?
Its TGI is > 100 µM.

What about the TGI (SNB-75 CNS) of the same compound?
Its TGI is > 100 µM.

And the TGI (NCI-H23 lung)?
Its TGI is > 100 µM.

And the TGI (OVCAR-4 ovarian)?
The TGI was > 100 µM.

And the TGI (MDA-MB-231 breast)?
The TGI was > 100 µM.

What about the TGI (NCI/ADR-RES ovarian) of the same compound?
The TGI was > 100 µM.

And the TGI (SF-295 CNS)?
Its TGI is > 100 µM.
